Where two headings read alike, the source gives them in different places.
Key:
keratinocytes [1] = assay: 3H-Thymidine incorporation and keratinocyte proliferation (Example 1A); type: cell-based, Human; details: for mean Thymidine incorp./μg protein ± s.d: 24 hours, n = 3
Description: (§1) Human keratinocytes, isolated from neonatal foreskin by trypsin treatment were grown in Dulbecco Modification Eagle (DME) Hams F12 (1:1) medium/10% fetal calf serum in the presence of irradiated 3T3 mouse fibroblasts for establishing dividing keratinocyte colonies. Cells were grown under the above condition until their second passage and kept frozen for future use. Frozen second passage keratinocytes were thawed and plated into the above medium and grown for five days before they were switched to a serum-free MCDB 153-based medium keratinocyte growth medium (KGM) from Clonetics Corporation, San Diego, Calif., containing 0.15 mM Ca, or keratinocyte serum-free media (KSFM) from GIBCO containing 0.09 mM Ca). On day 7, when the cells were 80-90% confluent, they were trypsinized and plated in the serum-free medium for the various experiments.
The incorporation of ^3 H-thymidine by cultured keratinocytes was used as an assay of keratinocyte proliferation. Thymidine is one of four deoxynucleosides which are the monomeric units of DNA, the universal library of genetic information in the animal kingdom. Prior to cell division of a somatic cell such as a keratinocyte, the complete genome of the cell undergoing cell division is replicated. This involves large scale DNA synthesis by the cell and enables both daughter cells to receive identical copies of the genetic material. When ^3 H-thymidine is included in the culture media of keratinocytes which are synthesizing DNA in preparation for cell division then the labelled nucleoside is incorporated into the newly synthesized DNA. The extent of incorporation of ^3 H-thymidine into a population of cells is proportional to the rate of DNA synthesis by this population of cells and therefore an indication of their cellular proliferation.
Keratinocytes (that were cultured as described above) were plated in 24 well plates at a density of about 20,000 cells per well in 1 ml media. After incubation for four days or until the cells were 60-70% confluent, the media was changed. Test compounds were added (in triplicate) to the wells 24 hours after the media change, and four hours later 1μCi ^3 H-Thymidine in 50 μl media was added per well. Cells were incubated for a further 24 hours. Media was removed from the cells, 10% ice cold trichloroacetic acid (TCA) added and plates were incubated on ice for 30 minutes. Cells were washed five times with 5% TCA and allowed to dissolve in 500 μl 0.1M NaOH for at least one hour (usually overnight). The preparations were neutralized with 0.1M HCl; 50 μl of the cell preparation was used to determine total protein content. Disintegrations per minute (DPM) from ^3 H labelling of DNA was determined by liquid scintillation counting of 900 μl of the cell preparation. Thymidine incorporation results were expressed as DPM/μg protein.

keratinocytes [2] = assay: Transglutaminase assay and keratinocyte differentiation, TGase normalized to DNA (Example 1B); type: cell-based, Human; details: for keratinocyte differentiation / transglutaminase level (in words): […]10^-7 M, […]10^-8 M and […]10^-9 M, vs ethanol control; for mean TGase/DNA × 10^-4 ± s.d: 72 hours, n = 3
Description: as §1
(§2) During the process of terminal differentiation in the epidermis, a 15 nm thick layer of protein, known as the cornified envelope (CE) is formed on the inner surface of the cell periphery. The CE is composed of numerous distinct proteins which have been cross-linked together by the formation of N ^ε -(γ-glutamyl) lysine isodipeptide bonds catalyzed by the action of at least two different transglutaminases (TGases) expressed in the epidermis. TGase I is expressed in abundance in the differentiated layers of the epidermis, especially the granular layer, but is absent in the undifferentiated basal epidermis. Thus TGase I is a useful marker of epidermal keratinocyte differentiation with high TGase I levels indicating a more differentiated state. An ELISA based TGase I assay, using a TGase I antibody, was used to assess the state of differentiation of the cultured keratinocytes in the examples that follow.
Keratinocytes (cultured as described above) were plated in 96 well plates at a density of 3,000 cells per well in 200 μl media. After incubation for four days the media was changed to media containing test compounds (six replicates per test). The cells were cultured for a further 72 hours after which time the media was aspirated and the plates stored at -70° C. Plates were removed from the freezer, and the cells washed with PBS. 100 μl sterile water was added and the cells were freeze fractured by freezing at -70° C. then thawing. The cells were incubated for one hour at room temperature (R/T) with PBS/3% BSA (wash buffer, bovine serum albumin), then rinsed with a fresh aliquot of wash buffer. Cells were incubated with 50 μl of primary antibodies monoclonal anti-human transglutaminase mouse antibody (IgG) obtained from Biomedical Industries diluted 1:2,000 in wash buffer for one hour, 37° C. then rinsed two times with wash buffer. Cells were then incubated with 50 μl of secondary antibody (Fab fragment, peroxidase conjugated anti-mouse IgG obtaining from Amersham) diluted 1:4,000 in wash buffer for one hour at 37° C., then rinsed two times with wash buffer. […] The absorbance of samples was read at 492 nm in the plate reader. […] TGase levels were determined by subtracting background from the readings from each treatment and determining mean±s.d. for the replicates exposed to both Ab.
The level of TGase-1 detected after treatment of the cells could be influenced by cell number, i.e., the greater the number of cells the greater the level of TGase-1 detected. […]

keratinocytes [3] = assay: Transglutaminase assay, keratinocyte differentiation (Example 4), normalized to DNA; type: cell-based, Human; details: for activity at […]: .00025 mM; for effect on transglutaminase / keratinocyte differentiation (in words): Table D, both experiments; for activity at 1000 µM: 1 mM
Description: as §1, §2
Keratinocytes (cultured as described above) were plated in 96 well plates at a density of 3,000 cells per well in 200 μl of cell culture media. After incubation for four days, the media was changed to media containing test compounds (six replicates per test). The cells were cultured for a further 72 hours after which time the media was aspirated and the plates stored at -70° C. After the plates were removed from the freezer, the cells were further freezed fractured by freezing and thawing and then washed 3× with PBS. The cells were incubated for one hour at room temperature (R/T) with TBS/5% BSA buffer. Cells were then incubated with 100 μl of monoclonal anti-human transglutaminase (IgG) mouse antibody (primary antibody) obtained from Biomedical Technologies Inc. diluted 1:2000 in TBS/1% BSA buffer for two hours at 37° C., and then rinsed six times with wash buffer (TBS/1% BSA/0.05% Tween-20). Cells were next incubated with 100 μl of Fab fragment, peroxidase conjugated anti-mouse IgG antibody (secondary antibody) from Amersham diluted 1:4,000 in wash buffer for two hours at 37° C. and then rinsed three times with wash buffer and three times with PBS. Cells were incubated with substrate solution (4 mg o-phenylene diamine and 3.3 μl 30% H2 O2 in 10 mL 0.1M citrate buffer, pH 5.0) for five minutes at R/T and in darkness (under aluminum foil). The reaction was stopped by the addition of 50 μl 4N H2SO4. The absorbance of samples was read at 492 nm in the plate reader. Out of the six replicates, four were treated with both antibodies, two were treated only with the secondary antibody (i.e., to determine the background binding of the enzyme conjugated antibody). Transglutaminase I levels were determined by subtracted background from the readings from each treatment and determining the mean s.d. for the replicates exposed to both antibodies.
The level of TGase-1 detected after treatment of the cells could be influenced by cell number, i.e., the greater the number of cells the greater the level of TGase-1 detected. The level of TGase-1 was normalized to DNA content of the cells in the same well thus eliminating variation due to differences in cell number. […]

LRAT = molecular target: T1, LRAT (Bos taurus, UniProt Q9BGL2); assay: In vitro microsomal esterification of retinol, LRAT catalyzed (retinyl laurate formation); type: biochemical, bovine; details: for inhibition at 10 µM: Table B
T1 construct: microsomal fraction isolated from bovine retinal pigment epithelial cells; from tissue; host or cells: bovine retinal pigment epithelial cells, microsomal fraction
T1 sequence (Q9BGL2 1-230): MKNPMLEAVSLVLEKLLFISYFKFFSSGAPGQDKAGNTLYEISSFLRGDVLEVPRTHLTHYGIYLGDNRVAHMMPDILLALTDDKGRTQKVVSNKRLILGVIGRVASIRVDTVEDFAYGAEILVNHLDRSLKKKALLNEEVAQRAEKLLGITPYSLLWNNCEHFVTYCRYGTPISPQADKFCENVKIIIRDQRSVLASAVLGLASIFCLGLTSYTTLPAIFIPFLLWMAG
Description: A solution containing 0.1M sodium phosphate pH 7 buffer, 5 mM dithiothreitol, 2 mg/ml bovine serum albumin, 40 micromolar palmitoyl CoA, 40 micromolar dilauroyl phosphatidyl choline, 10 micromolar retinol and a test compound or a solvent blank, is incubated for 1 hour at 37° C. with a microsomal fraction isolated from bovine retinal pigment epithelial cells. After incubation, the reaction was quenched by addition of an equal volume of ethanol, and the retinyl esters formed (retinyl laurate from the LRAT catalyzed reaction and retinyl palmitate from ARAT catalyzed reaction) are extracted with hexane.
A solution containing 0.1M sodium phosphate pH 7 buffer, 5 mM dithiothreitol, 2 mg/ml bovine serum albumin, 40 micromolar palmitoyl CoA, 40 micromolar dilauroyl phosphatidyl choline, 10 micromolar retinol and a test compound or solvent blank, was incubated for 1 hour at 37° C. with a microsomal fraction isolated from bovine retinal pigment epithelial cells. After incubation, the reaction was quenched by addition of an equal volume of ethanol, and the retinyl esters formed (retinyl palmitate from the ARAT catalyzed reaction, and retinyl laurate from the LRAT catalyzed reaction) were extracted with hexane.
The compounds in Table A were tested at a 100 μM concentration.

[4] = Homo sapiens, Keratinocyte, Experiment 2, read-out: Transglutaminase level, % CONTROL

## CC1=C(/C=C/C(C)=C/C=C/C(C)=C/C(=O)O)C(C)(C)CCC1 [Retinoic acid]
Keratinocytes [1]; […]10^-7 M, […]10^-8 and […]10^-9 M, over ethanol control and each retinol treatment
  keratinocyte proliferation (in words): significantly increased keratinocyte proliferation
Keratinocytes [1]; […] 10^-7 M
  mean Thymidine incorp./μg protein ± s.d: 2475 ± 116 DPM/μg protein
Keratinocytes [1]; […] 10^-8 M
  mean Thymidine incorp./μg protein ± s.d: 2686 ± 72 DPM/μg protein
Keratinocytes [1]; […] 10^-9 M
  mean Thymidine incorp./μg protein ± s.d: 2556 ± 80 DPM/μg protein
Keratinocytes [2]
  keratinocyte differentiation / transglutaminase level (in words): decreased keratinocyte differentiation
Keratinocytes [3]; Homo sapiens, Keratinocyte, read-out: Transglutaminase level, % CONTROL, Experiment 1
  activity at […]: 24%
Keratinocytes [3]; Homo sapiens, Keratinocyte, read-out: Transglutaminase level, % CONTROL, Experiment 2
  activity at […]: 8%

## CC1=C(/C=C/C(C)=C/C=C/C(C)=C/CO)C(C)(C)CCC1 [Retinol]
Keratinocytes [1]; […] 10^-7 M
  mean Thymidine incorp./μg protein ± s.d: 2218 ± 73 DPM/μg protein
Keratinocytes [1]; […] 10^-8 M
  mean Thymidine incorp./μg protein ± s.d: 2034 ± 46 DPM/μg protein
Keratinocytes [1]; […] 10^-9 M
  mean Thymidine incorp./μg protein ± s.d: 1977 ± 19 DPM/μg protein
Keratinocytes [2]
  keratinocyte differentiation / transglutaminase level (in words): The decrease in transglutaminase level was dose dependent
Keratinocytes [2]; […] 10^-7 M
  mean TGase/DNA × 10^-4 ± s.d: 1.14 ± 0.22 × 10^-4
Keratinocytes [2]; […] 10^-8 M
  mean TGase/DNA × 10^-4 ± s.d: 1.89 ± 0.30 × 10^-4
Keratinocytes [2]; […] 10^-9 M
  mean TGase/DNA × 10^-4 ± s.d: 2.70 ± 0.59 × 10^-4
Keratinocytes [3]; Homo sapiens, Keratinocyte, Experiment 1, .001 mM, read-out: Transglutaminase level, % CONTROL
  activity at 1 µM: 67%
Keratinocytes [3]; [4]
  activity at […]: 63.5%
Keratinocytes [3]
  effect on transglutaminase / keratinocyte differentiation (in words): not very effective

## C=CCCC(=O)/C=C/C1C(C)=CCCC1(C)C (stereo not drawn) [allyl alpha ionone]
LRAT
  inhibition at 10 µM: 17%

## C/C=C/C(=O)C1C(C)=CCCC1(C)C (stereo not drawn) [alpha damascone]
Keratinocytes [3]; Homo sapiens, Keratinocyte, Experiment 1, read-out: Transglutaminase level, % CONTROL
  activity at 1000 µM: 92%
Keratinocytes [3]; [4]
  activity at 1000 µM: 86%
Keratinocytes [3]
  effect on transglutaminase / keratinocyte differentiation (in words): not very effective

## C/C=C/C(=O)C1C(C)=CC=CC1(C)C (stereo not drawn) [damascenone]
LRAT; Table A, 100 μM
  inhibition at 100 µM: 79%
LRAT
  inhibition at 10 µM: 29%

## CC(=O)CCC1C(C)=CCCC1(C)C (stereo not drawn) [dihydro alpha ionone]
LRAT; Table C (comparative), 100 μM
  inhibition at 100 µM: 18%

## C=C1CCCC(C)(C)C1/C=C/C(=O)CC (stereo not drawn) [gamma methyl ionone]
LRAT; Table A, 100 μM
  inhibition at 100 µM: 38%

## CC(C)[C@@H]1CC[C@@H](C)CC1=O [mentone]
LRAT; Table C (comparative), 100 μM
  % INHIBITION, LRAT: 0%

## CCCC(O)CCC1C(C)CCCC1(C)C (stereo not drawn) [timberol]
LRAT; Table A, 100 μM
  inhibition at 100 µM: 33%
